The values below come from patent publication US6723858B2, “Estrogenic compounds as anti-mitotic agents” (The Children's Medical Center Corporation, priority 1993, dated 2004).

Test [1] concerns tubulin. The test can be described thus: inhibition of tubulin polymerization in vitro (turbidity at 350 nm). It counts as biochemical. The note with it: for IC50: read-out: IC50 (concentration required to inhibit tubulin polymerization by 50%), method of Example 1, average ± S.D., obtained graphically. On the procedure:
Anti-mitotic activity can be evaluated by testing the ability of an estradiol derivative to inhibit tubulin polymerization and microtubule assembly in vitro. Microtubule assembly is followed in a Gilford recording spectrophotometer (model 250 or […]) equipped with electronic temperature controllers. […] The 0.24 ml reaction mixtures are incubated for 15 min. at 37° C. and then chilled on ice. After addition of 10 μl 2.5 mM GTP, the reaction mixture is transferred to a cuvette at 0° C., and a baseline established. At time zero, the temperature controller of the spectrophotometer is set at 37° C. Microtubule assembly is evaluated by increased turbity at 350 nm. […] The 0.24 ml reaction mixtures were incubated for 15 min at 37° C. and chilled on ice. After addition of 10 μl of 2.5 mM GTP the reaction mixtures were transferred to cuvettes held at 0° C., and baselines were established. At time zero the temperature controller was set at 37° C. At the times indicated by the vertical dashed lines the temperature controller was set at the indicated temperatures. […] The 0.24 ml reaction mixtures were incubated for 15 min at 26° C. and chilled on ice. After addition of 10 μl of 10 mM GTP the reaction mixtures were transferred to cuvettes held at 0° C., and baselines were established. At time zero the temperature controller was set at 26° C. At the time indicated by vertical dashed line the temperature controller was set at 0° C.

Test [2] has as its system chick embryo chorioallantoic membrane new blood vessel cells (angiogenesis). Briefly: chick embryo chorioallantoic membrane (CAM) assay. It counts as in vivo. The note with it: 100 mg disk (methylcellulose disc) on CAM, after 48 hours. The procedure: Anti-mitotic activity is evaluated in situ by testing the ability of an improved estradiol derivative to inhibit the proliferation of new blood vessel cells (angiogenesis). A suitable assay is the chick embryo chorioallantoic membrane (CAM) assay described by Crum et al. Science 230:1375 (1985). See also, U.S. Pat. No. 5,001,116, hereby incorporated by reference, which describes the CAM assay. Briefly, fertilized chick embryos are removed from their shell on day 3 or 4, and a methylcellulose disc containing the drug is implanted on the chorioallantoic membrane. The embryos are examined 48 hours later and, if a clear avascular zone appears around the methylcellulose disc, the diameter of that zone is measured.

Test [3] has as its system tubulin. Briefly: inhibition of [3H]colchicine binding to tubulin. The note with it: 1.0 μM tubulin, 5% DMSO, 10 min at 37° C.; for Percent inhibition ± S.D. of colchicine binding to tubulin: 100 μM inhibitor, 2 μM [3H]colchicine.
Method: Incubation was for 10 min at 37° C.
Incubation was for 10 min at 37° C. […] S.D., standard deviation.

On to `C[C@]12CC[C@@H]3c4cc(Br)c(O)cc4CC[C@H]3[C@@H]1CC[C@@H]2O` [2-Bromoestradiol], for which the IC50 in the test on tubulin [1] came out at 4.5 ± 0.6 µM.

For `C[C@]12CC[C@@H]3c4cc(F)c(O)cc4CC[C@H]3[C@@H]1CC[C@@H]2O` [2-Fluoroestradiol], in the test on tubulin [1], the IC50 turned out to be 27 ± 6 µM.

For the compound `C#C[C@]1(O)CC[C@H]2[C@@H]3CCc4cc(O)c(OC)cc4[C@H]3CC[C@@]21C` [2-Methoxy-17-ethynylestradiol], the IC50 with tubulin [1] is greater than 40 µM.

For the compound `COc1cc2c(cc1OC)C1CCC3(C)C(O)CCC3C1CC2` (stereo not shown) [2-Methoxyestradiol-3-O-methyl ether], in the test with tubulin [1], the IC50 is greater than 40 µM.

Consider `COc1cc2c(cc1O)CCC1C2CCC2(C)C(O)CCC12` (stereo not shown) [2-Methoxyestradiol], for which, in test [2], the “inhibition of cell mitosis and growth of new blood vessels” value was “inhibit cell mitosis and the growth of new blood vessels”. Further, in the test with tubulin [1] (20-75 μM at 37° C. (A) or 1.0-4.0 μM at 26° C. (B)), the “inhibition of tubulin polymerization (FIG. 1)” value is “inhibition of tubulin polymerization”. Further, in the test on tubulin [1], the IC50 is 1.9 ± 0.2 µM. Besides, in the test with tubulin [3] (5 μM [3H]colchicine), the “inhibition of colchicine binding to tubulin (FIG. 2)” value is listed as “inhibits colchicine binding to tubulin”. Moreover, the “Percent inhibition ± S.D. of colchicine binding to tubulin” value with tubulin [3] was determined as 82 ± 2%.

Take `COc1cc2c(cc1O)CC[C@@H]1[C@@H]2CC[C@]2(C)[C@@H](O)[C@H](O)C[C@@H]12` [2-Methoxyestriol]: the IC50 in the test with tubulin [1] was greater than 40 µM.

In the case of `COc1cc2c(cc1O)CC[C@@H]1[C@@H]2CC[C@]2(C)C(=O)CC[C@@H]12` [2-Methoxyestrone], the IC50 in the test with tubulin [1] worked out at 8.8 ± 1 µM. Further, in the test with tubulin [3], the “Percent inhibition ± S.D. of colchicine binding to tubulin” value turned out to be 57 ± 6%.

Turning to `COc1ccc2c(c1OC)CCC1C2CCC2(C)C(O)CCC12` (stereo not shown) [4-Methoxyestradiol-3-O-methyl ether], the IC50 in the test with tubulin [1] is greater than 40 µM.

For `COc1c(O)ccc2c1CCC1C2CCC2(C)C(O)CCC12` (stereo not shown) [4-Methoxyestradiol], the IC50 with tubulin [1] is greater than 40 µM.

Turning to `C#C[C@]1(O)CC[C@H]2[C@@H]3CCc4cc(O)ccc4[C@H]3CC[C@@]21C` [17-Ethynylestradiol, reference compound], the IC50 in the test with tubulin [1] is 10 ± 2 µM. For the same compound, the “Percent inhibition ± S.D. of colchicine binding to tubulin” value in the test with tubulin [3] was found to be 50 ± 7%.

Take `COc1ccc(CCc2cc(OC)c(OC)c(OC)c2)cc1O` [Dihydrocombretastatin A-4, reference compound]: the IC50 in the test on tubulin [1] is 0.63 ± 0.03 µM.

With `COc1ccc2c(c1)CC[C@@H]1[C@@H]2CC[C@]2(C)[C@@H](O)CC[C@@H]12` [Estradiol-3-O-methyl ether], in the test on tubulin [1], the IC50 is greater than 40 µM.

With `C[C@]12CC[C@@H]3c4ccc(O)cc4CC[C@H]3[C@@H]1C[C@@H](O)[C@@H]2O` [Estriol, reference compound], the IC50 with tubulin [1] was greater than 40 µM.
